Test results reported in publication PMC5732773, “Metabolism, pharmacokinetics, and bioavailability of ZB716, a Steroidal Selective Estrogen Receptor Downregulator (SERD)” (Oncotarget, 2017).
Where two headings read alike, the source gives them in different places. Each block holds one compound with its values, some of them ahead of it.

How the values were obtained:
[1] = set-up: method as in PMID 27529700, PMID 29467940; details: cited from earlier work
[2] = ZB716 and metabolites in rat urine after oral dosing; details: for share in urine accounted for in urinary excretion 72 hours after oral dosage: oral ZB716, after 72 h
Description: Urine samples were subjected to the same HPLC-MS/MS analysis to identify ZB716 and any possible metabolites over a time course post oral administration. […] Again, quantitation was only possible with ZB716 and fulvestrant for which standard calibration curves were established.
(§1) Female Sprague-Dawley rats, weighing between 350 and 400 g (Charles River Laboratories, Portage, MI), were used for this study on ZB716. Oral gavages containing ZB716 were formulated in 5% dimethyl sulfoxide (DMSO), 40% polyethylene glycol 400, and 55% saline. Rats were housed in metabolic cages for collection of urine and feces samples after oral administration of ZB716 at a dose of 5 or 10 mg/kg. […] Urine and feces were collected for the durations of 0-1h, 1-3h, 3-6h, 6-8h, 8-24h, 24-48h, 48-72h, 72-96h, and 96-120 h after drug administration.
Urine samples were thawed at room temperature and vortaxed. 200 μL of the sample was transferred to a 1.5 mL Eppendorf microcentrifuge tube followed by adding 10 μL of the 0.5 ng/μL trans-tamoxifen-13C2,15N in methanol solution and 200 μL methanol. After Vortaxing and centrifuging, the sample was injected into the UHPLC-Q-Exactive instrument for analysis.
(§2) The Q-Exactive mass spectrometer was coupled to a UHPLC ultimate 3000 (Dionex) using a C-18 column (1.8 μm, 2.1 mm x 50 mm). The gradient started from 30% mobile phase B (acetonitrile with 0.05% formic acid) for 1 min, increased to 100% B in 4.5 min, held for 5 min, then decreased back to 30% B and held for 5 min. Mobile phase A was water with 0.05% formic acid. The flow rate was controlled at 0.3 mL/min. PRM mode was used to obtain the fragment patterns for metabolites with the setting of MS2 resolution of 17500, AGC target of 1e5, maximum IJ of 100 ms, NCE setting of 35. The heated ESI probe setting was set as sheath gas at 30 psi, auxiliary gas at 8 psi, spray voltage at 2500V, capillary temperature at 280°C, S-lens RF level at 50, and auxiliary gas heater temperature at 300°C.
(§3) Concentrated stock solutions of ZB716 and fulvestrant were prepared at 1 mM in methanol. The stock solution of the internal standard (trans-tamoxifen-13C2,15N) was prepared at 1000 ng/μL in methanol. The above stock solutions were kept at -20°C until use. The working solutions of ZB716 and fulvestrant were prepared at 100 μM in methanol. The working solution of the internal standard trans-tamoxifen-13C2, 15N was prepared at 5 ng/μL and 0.5 ng/ μL in methanol, respectively. Working solutions at various concentrations were prepared by diluting their corresponding stock solution with methanol. Calibration standards quality control solutions were prepared over a range of five orders of magnitude.

[3] = ZB716 and metabolites in rat feces after oral dosing; details: for share measured in feces after 72 hours: oral ZB716, after 72 h
Protocol: as §1
The internal standard of trans-tamoxifen-13C2,15N (0.5 ng/μL in methanol) was added to the feces samples at 10 ng/g feces based on the weight of the feces collected. Feces samples were homogenized with a Power Gen 125 homogenizer (Fisher Scientific) in the mixture of chloroform/methanol (2:1, v:v) and stored at -20 °C overnight. After sonicating for 30 min, the samples were centrifuged with a Heraeus Megafuge16R centrifuge at 3000 RPM. The supernatant was dried with nitrogen gas at room temperature and resuspended with corresponding amount of methanol (200 μL methanol/g feces) for injection on the UHPLC-Q-Exactive instrument.
as §2
Concentrated stock solutions of ZB716 and fulvestrant were prepared at 1 mM in methanol. The stock solution of the internal standard (trans-tamoxifen-13C2,15N) was prepared at 1000 ng/μL in methanol.

[4] = Oxidative metabolism of ZB716 in rat liver microsomes with NADPH; details: ZB716 with rat liver microsome and NADPH, 1 hour
Protocol: By incubating ZB716 with rat liver microsome in the presence of NADPH for 1 hour, the cytochrome P450 enzymes in the microsomes were allowed to oxidize ZB716 under aerobic conditions.
NADPH solution A contains NADP+ and Glucose 6-phosphate. NADPH solution B contains Glucose-6-phosphate dehydrogenase, which is necessary for NADPH regeneration. The pre-incubation solution was prepared by adding 30 μL of potassium phosphate buffer (pH 7.4; 10x), 241.5 μL water, 15μL of NADPH solution A, 3 μL of NADPH solution B, and 7.5 μL rat liver microsomes from Corning Gentest into a 1.5 mL microcentrifuge tube. The mixtures were incubated at 37°C for 5 min in an incubator. Then 3 μL of 10 mM ZB716 was added, mixed, and incubated at 37°C for 60 min in the incubator. After incubation, 300 μL MeOH was added to terminate the reaction. The final mixture was then centrifuged at 10,000×g for 4 min at 4°C. The supernatant was analyzed by UHPLC-HRMS (Thermo Q-Exactive).
The Q-Exactive mass spectrometer was coupled to a UHPLC ultimate 3000 (Dionex) using a C-18 column (1.8 μm, 2.1 mm x 50 mm). The gradient started from 30% mobile phase B (acetonitrile with 0.05% formic acid) for 1 min, increased to 100% B in 4.5 min, held for 5 min, then decreased back to 30% B and held for 5 min. Mobile phase A was water with 0.05% formic acid. The flow rate was controlled at 0.3 mL/min. […]

[5] = Metabolism and pharmacokinetics of ZB716 in rat plasma after oral dosing
Protocol: The same PRM approach was used to identify the metabolites of ZB716 in rat plasma collected at various time points after a single oral dose of 10 mg/kg. […] The pharmacokinetics parameters were calculated using a noncompartment extravascular model (Table 3).
Female Sprague-Dawley rats, weighing between 350 and 400 g (Charles River Laboratories, Portage, MI), were used for this study on ZB716. Oral gavages containing ZB716 were formulated in 5% dimethyl sulfoxide (DMSO), 40% polyethylene glycol 400, and 55% saline. Rats were housed in metabolic cages for collection of urine and feces samples after oral administration of ZB716 at a dose of 5 or 10 mg/kg. […] Urine and feces were collected for the durations of 0-1h, 1-3h, 3-6h, 6-8h, 8-24h, 24-48h, 48-72h, 72-96h, and 96-120 h after drug administration. Blood samples were collected from the lateral tail vein of the rats at 5 min, 15 min, 30 min, 1 h, 3 h, 6 h, 8 h, 24 h, and 48 h time points after drug administration. Rat blood was collected with a capillary into 1.5 mL microcentrifuge tubes containing 0.01 mL of 10 % EDTA anticoagulant. Plasma was then separated from cell pellets by centrifugation in a refrigerated centrifuge at 4 °C and transferred to a separate tube. Plasma samples were frozen at -80 °C until analysis.
Plasma samples (100 μL) were extracted using a modified Folch method for lipid extraction. Internal standard (10 μL 0.5 ng/μL trans-tamoxifen-13C2,15N in methanol), methanol (0.5 mL) and chloroform (1 mL) were added to each plasma sample. The mixtures were stored at −20 °C overnight. Samples were sonicated for 10 min and then centrifuged with a Thermo Scientific Heraeus Megafuge16 centrifuge. The top liquid layer was transferred to another test tube. The bottom residual layer was washed with 0.5 mL of chloroform/methanol (2:1), centrifuged, and the top layer was transferred and combined with the previous top layer. The mixture was dried out with nitrogen at room-temperature and re-suspended in 100 μL of HPLC grade methanol for injection.
as §2, §3

[6] = Sulfation in rat liver cytosol with PAPS
Protocol: Sulfate conjugation is enabled by sulfotransferases in the presence of the cofactor 3'-phosphoadenosine-5'-phosphosulfate (PAPS).
The pre-incubation solution was prepared by adding 13.5 μL 1 M pH=7.5 Tris-HCl buffer, 247.5 μL water, 6 μL 1 mM 3'-Phosphoadenosine-5'-phosphosulfate (PAPS) from R&D Systems, 30 μL (10 mg/mL) cytosolic protein from Corning Gentest into a 1.5 mL microcentrifuge. The mixtures were incubated at 37°C for 5 min in an incubator. Then 3 μL of 10 mM ZB716 was added, mixed, and incubated at 37°C for 60 min in the incubator. After incubation, 300 μL MeOH was added to terminate the reaction. The final mixture was then -centrifuged at 10,000×g for 4 min at 4 °C. The supernatant was analyzed by the UHPLC-Q-Exactive instrument.
The Q-Exactive mass spectrometer was coupled to a UHPLC ultimate 3000 (Dionex) using a C-18 column (1.8 μm, 2.1 mm x 50 mm). The gradient started from 30% mobile phase B (acetonitrile with 0.05% formic acid) for 1 min, increased to 100% B in 4.5 min, held for 5 min, then decreased back to 30% B and held for 5 min. Mobile phase A was water with 0.05% formic acid. The flow rate was controlled at 0.3 mL/min. PRM mode was used to obtain the fragment patterns for metabolites with the setting of MS2 resolution of 17500, AGC target of 1e5, maximum IJ of 100 ms, NCE setting of 35. […]

[7] = test system: UGT1A1, -1A3, -1A4, and -1A8; details: predominant site 3-hydroxyl; cited from earlier work
[8] = Glucuronidation in liver microsomes with UGT reaction mix (UDPGA); details: fulvestrant incubated with liver microsomes and UDPGA
Protocol: The pre-incubation solution was prepared by adding 205.5 μL water, 24 μL of UGT Reaction Mix solution A, 60μL of UGT Reaction Mix solution B, 7.5 μL rat liver microsomes from Corning Gentest into a 1.5 mL microcentrifuge. The mixtures were incubated at 37°C for 5 min in an incubator. Then 3 μL of 10mM ZB716 was added, mixed, and incubated at 37°C for 60 min in the incubator. After incubation, 300 μL MeOH was added to terminate the reaction. The final mixture was then centrifuged at 10,000× g for 4 min at 4 °C. The supernatant was analyzed by the UHPLC-Q-Exactive instrument.
as §2

[9] = set-up: method as in PMID 12490735; details: second line therapy in the metastatic setting; cited from earlier work
[10] = female, Sprague-Dawley, rat, plasma, po, 10 mg/kg

share in urine accounted for in urinary excretion 72 hours after oral dosage ([2]; rat): less than 1% | share of ZB716 in urine excreted between 24 h to 72 h ([2]; rat, oral, 24-72 h): 34.4% | share of ZB716 in urine excreted before 24 h ([2]; rat, oral, before 24 h): about 63.7% | share measured in feces after 72 hours ([3]; rat): Less than 1% | share of total ZB716 present in feces excreted in 24 hours ([3]; rat, oral, 0-24 h): 80.7% | share of ZB716 in feces excreted between 24 h to 72 h ([3]; rat, oral, 24-72 h): 10.2% | number of direct or indirect oxidative metabolites identified [4]: eight | AUC(0-t) [5, 10]: 1300 ng·h/mL | MRT inf [5, 10]: 18.4 h | Tmax [5, 10]: 2 h | concentration at 1 h [5, 10]: 130 ng/mL | concentration at 4 h [5, 10]: 87.1 ng/mL | concentration at 8 h [5, 10]: 26.4 ng/mL | concentration at 48 h [5, 10]: 6.91 ng/mL | k el [5, 10]: 1.11e-05 s⁻¹ | share of ZB716 metabolized to fulvestrant ([5]; in vivo, observed in mice (ref 27-28) and again in rats in this study): 10-30% | AUC 0-inf_obs ([5]; rat, oral 10 mg/kg): 1451.82 ng·h/mL | Cmax ([5]; rat, oral 10 mg/kg): 158.12 ng/mL | Vz/Fobs (apparent volume of distribution during terminal phase) ([5]; rat, oral 10 mg/kg): 13.97 (mg/kg)/(ng/mL) | t1/2 ([5]; rat, oral 10 mg/kg, noncompartment extravascular model): 17.03 h | loss of plasma concentration from 2 h to 4 h ([5]; rat, single oral dose 10 mg/kg, within 2 hours after peak): 44.9% | number of sulfate conjugation products observed ([6]; ZB716 with rat liver cytosol and PAPS): three
SMILES: C[C@]12CC[C@@H]3c4ccc(B(O)O)cc4C[C@@H](CCCCCCCCC[S+]([O-])CCCC(F)(F)C(F)(F)F)[C@H]3[C@@H]1CC[C@@H]2O (stereo partly drawn) [ZB716]
peak plasma concentration ([1]; mice and rats, oral administration at 10 mg/kg): > 100 ng/mL

SMILES: CC12CCC3c4ccc(O)cc4CC(CCCCCCCCC[S+]([O-])CCCC(F)(F)C(F)(F)F)C3C1CCC2OC1OC(C(=O)O)C(O)C(O)C1O (stereo not drawn) [FU-17-glucuronide]
share of fulvestrant glucuronidation products [7]: 5-10%

detected in rat urine ([2]; rat urine after oral administration of ZB716, + detected, - not detected): detected | share in urine accounted for in urinary excretion 72 hours after oral dosage ([2]; rat): less than 1% | share of all fulvestrant found in urine excreted in the first 48 hours ([2]; rat, oral ZB716, metabolite fulvestrant, first 48 h): 97.6% | detected in rat feces ([3]; rat feces after single oral dose of ZB716, + detected, - not detected): detected | share measured in feces after 72 hours ([3]; rat): Less than 1% | fulvestrant excreted in feces before 72 h ([3]; rat, oral ZB716, metabolite fulvestrant, before 72 h): 69.2% | oxidative metabolite of ZB716 identified in incubation mixture [4]: identified | site of glucuronidation [8]: primarily at 3-OH | detected in rat plasma ([5]; rat plasma after single oral dose of ZB716 10 mg/kg, + detected, - not detected): identified | site of sulfation ([6]; fulvestrant incubated with rat liver cytosol): predominantly at 3-position
SMILES: C[C@]12CC[C@@H]3c4ccc(O)cc4C[C@@H](CCCCCCCCC[S+]([O-])CCCC(F)(F)C(F)(F)F)[C@H]3[C@@H]1CC[C@@H]2O (stereo partly drawn) [Fulvestrant, reference compound]
peak plasma concentration ([1]; animals, similar dosage via s.c. injection): 20 ng/mL | clinical response rate [9]: below 20%
